Test results published in ChEMBL document CHEMBL2046376, “Synthesis and antimicrobial activity of amide derivatives of polyether antibiotic-salinomycin” (2012).
Converted amounts (≈) assume the structure as drawn. The source made the active and inactive calls. No cut-off for these calls is given here.

What was measured:
Assay type in all cases: functional
Staphylococcus aureus [1] = assay: Antibacterial activity against Staphylococcus aureus ATCC 25923 after 18 hrs by twofold serial agar dilution technique; conditions: ATCC 25923, 18 h
Escherichia coli [2] = assay: Antibacterial activity against Escherichia coli ATCC 25922 assessed as zone of inhibition at 400 ug/disc after 18 hrs by disc diffusion method; conditions: ATCC 25922, 18 h, read-out: DIZ
[3] = test system: Staphylococcus epidermidis; assay: Antibacterial activity against Staphylococcus epidermidis ATCC 35984 after 18 hrs by twofold serial agar dilution technique; conditions: ATCC 35984, 18 h
Escherichia coli [4] = assay: Antibacterial activity against Escherichia coli ATCC 10538 assessed as zone of inhibition at 400 ug/disc after 18 hrs by disc diffusion method; conditions: ATCC 10538, 18 h, read-out: DIZ
Pseudomonas aeruginosa [5] = assay: Antibacterial activity against Pseudomonas aeruginosa NCTC 6749 after 18 hrs by twofold serial agar dilution technique; conditions: for MIC: NCTC 6749, 18 h
Pseudomonas aeruginosa [6] = assay: Antibacterial activity against Pseudomonas aeruginosa ATCC 27853 assessed as zone of inhibition at 400 ug/disc after 18 hrs by disc diffusion method; conditions: ATCC 27853, 18 h, read-out: DIZ
Proteus vulgaris [7] = assay: Antibacterial activity against Proteus vulgaris NCTC 4635 after 18 hrs by twofold serial agar dilution technique; conditions: for MIC: NCTC 4635, 18 h
Staphylococcus aureus [8] = assay: Antibacterial activity against Staphylococcus aureus ATCC 6538 assessed as zone of inhibition at 400 ug/disc after 18 hrs by disc diffusion method; conditions: ATCC 6538, 18 h, read-out: DIZ
Staphylococcus aureus [9] = assay: Antibacterial activity against Staphylococcus aureus NCTC 4163 after 18 hrs by twofold serial agar dilution technique; conditions: NCTC 4163, 18 h
Escherichia coli [10] = assay: Antibacterial activity against Escherichia coli ATCC 25922 after 18 hrs by twofold serial agar dilution technique; conditions: ATCC 25922, 18 h
[11] = test system: Bordetella bronchiseptica; assay: Antibacterial activity against Bordetella bronchiseptica ATCC 4617 assessed as zone of inhibition at 400 ug/disc after 18 hrs by disc diffusion method; conditions: ATCC 4617, 18 h, read-out: DIZ
[12] = test system: Bordetella bronchiseptica; assay: Antibacterial activity against Bordetella bronchiseptica ATCC 4617 after 18 hrs by twofold serial agar dilution technique; conditions: for MIC: ATCC 4617, 18 h
Proteus vulgaris [13] = assay: Antibacterial activity against Proteus vulgaris NCTC 4635 assessed as zone of inhibition at 400 ug/disc after 18 hrs by disc diffusion method; conditions: NCTC 4635, 18 h, read-out: DIZ
Candida albicans [14] = assay: Antifungal activity against Candida albicans ATCC 10231 after 24 hrs by twofold serial agar dilution technique; conditions: for MIC: ATCC 10231, 24 h
Staphylococcus aureus [15] = assay: Antibacterial activity against Staphylococcus aureus ATCC 6538 after 18 hrs by twofold serial agar dilution technique; conditions: ATCC 6538, 18 h
Staphylococcus aureus [16] = assay: Antibacterial activity against Staphylococcus aureus NCTC 4163 assessed as zone of inhibition at 400 ug/disc after 18 hrs by disc diffusion method; conditions: NCTC 4163, 18 h, read-out: DIZ
[17] = test system: Staphylococcus epidermidis; assay: Antibacterial activity against Staphylococcus epidermidis ATCC 12228 after 18 hrs by twofold serial agar dilution technique; conditions: ATCC 12228, 18 h
Escherichia coli [18] = assay: Antibacterial activity against Escherichia coli ATCC 10538 after 18 hrs by twofold serial agar dilution technique; conditions: for MIC: ATCC 10538, 18 h
Candida albicans [19] = assay: Antifungal activity against Candida albicans ATCC 90028 after 24 hrs by twofold serial agar dilution technique; conditions: for MIC: ATCC 90028, 24 h
Escherichia coli [20] = assay: Antibacterial activity against Escherichia coli NCTC 8196 assessed as zone of inhibition at 400 ug/disc after 18 hrs by disc diffusion method; conditions: NCTC 8196, 18 h, read-out: DIZ
Pseudomonas aeruginosa [21] = assay: Antibacterial activity against Pseudomonas aeruginosa ATCC 15442 after 18 hrs by twofold serial agar dilution technique; conditions: for MIC: ATCC 15442, 18 h
Pseudomonas aeruginosa [22] = assay: Antibacterial activity against Pseudomonas aeruginosa NCTC 6749 assessed as zone of inhibition at 400 ug/disc after 18 hrs by disc diffusion method; conditions: NCTC 6749, 18 h, read-out: DIZ
[23] = test system: Staphylococcus epidermidis; assay: Antibacterial activity against Staphylococcus epidermidis ATCC 12228 assessed as zone of inhibition at 400 ug/disc after 18 hrs by disc diffusion method; conditions: ATCC 12228, 18 h, read-out: DIZ
Candida parapsilosis = assay: Antifungal activity against Candida parapsilosis ATCC 22019 after 24 hrs by twofold serial agar dilution technique; conditions: for MIC: Lodderomyces parapsilosis, ATCC 22019, 24 h
Escherichia coli [24] = assay: Antibacterial activity against Escherichia coli NCTC 8196 after 18 hrs by twofold serial agar dilution technique; conditions: for MIC: NCTC 8196, 18 h
Staphylococcus aureus [25] = assay: Antibacterial activity against Staphylococcus aureus ATCC 25923 assessed as zone of inhibition at 400 ug/disc after 18 hrs by disc diffusion method; conditions: ATCC 25923, 18 h, read-out: DIZ
Pseudomonas aeruginosa [26] = assay: Antibacterial activity against Pseudomonas aeruginosa ATCC 27853 after 18 hrs by twofold serial agar dilution technique; conditions: for MIC: ATCC 27853, 18 h
[27] = test system: Staphylococcus epidermidis; assay: Antibacterial activity against Staphylococcus epidermidis ATCC 35984 assessed as zone of inhibition at 400 ug/disc after 18 hrs by disc diffusion method; conditions: ATCC 35984, 18 h, read-out: DIZ
Pseudomonas aeruginosa [28] = assay: Antibacterial activity against Pseudomonas aeruginosa ATCC 15442 assessed as zone of inhibition at 400 ug/disc after 18 hrs by disc diffusion method; conditions: ATCC 15442, 18 h, read-out: DIZ
Staphylococcus aureus [29] = assay: Antibacterial activity against Staphylococcus aureus ATCC 29213 assessed as zone of inhibition at 400 ug/disc after 18 hrs by disc diffusion method; conditions: ATCC 29213, 18 h, read-out: DIZ
Staphylococcus aureus [30] = assay: Antibacterial activity against Staphylococcus aureus ATCC 29213 after 18 hrs by twofold serial agar dilution technique; conditions: ATCC 29213, 18 h

SMILES	MIC (Staphylococcus aureus [1]) [µg/mL]	zone of inhibition at 400 µg/disc (Escherichia coli [2]) [mm]	MIC [3] [µg/mL]	zone of inhibition at 400 µg/disc (Escherichia coli [4]) [mm]	MIC (Pseudomonas aeruginosa [5]) [µg/mL]	zone of inhibition at 400 µg/disc (Pseudomonas aeruginosa [6]) [mm]	MIC (Proteus vulgaris [7]) [µg/mL]	zone of inhibition at 400 µg/disc (Staphylococcus aureus [8]) [mm]	MIC (Staphylococcus aureus [9]) [µg/mL]	MIC (Escherichia coli [10]) [µg/mL]	zone of inhibition at 400 µg/disc [11] [mm]	MIC [12] [µg/mL]	zone of inhibition at 400 µg/disc (Proteus vulgaris [13]) [mm]	MIC (Candida albicans [14]) [µg/mL]	zone of inhibition at 400 µg/disc (Staphylococcus aureus [16]) [mm]	zone of inhibition at 400 µg/disc [23] [mm]	zone of inhibition at 400 µg/disc (Staphylococcus aureus [25]) [mm]	zone of inhibition at 400 µg/disc [27] [mm]	zone of inhibition at 400 µg/disc (Staphylococcus aureus [29]) [mm]	MIC (Staphylococcus aureus [30]) [µg/mL]	further results
CC[C@@H](C(=O)[C@@H](C)[C@@H](O)[C@H](C)[C@@H]1O[C@@H]([C@@H](CC)C(=O)NCCc2c[nH]c3ccccc23)CC[C@@H]1C)[C@H]1O[C@]2(C=C[C@@H](O)[C@]3(CC[C@@](C)([C@H]4CC[C@](O)(CC)[C@H](C)O4)O3)O2)[C@H](C)C[C@@H]1C	≥ 256	10	≥ 256	10	≥ 256	10	≥ 256	10	≥ 256	≥ 256	10	≥ 256	10	≥ 256	10	10	10	10	10	≥ 256	MIC (Staphylococcus aureus [15]): ≥ 256 µg/mL; MIC [17]: ≥ 256 µg/mL; MIC (Escherichia coli [18]): ≥ 256 µg/mL; MIC (Candida albicans [19]): ≥ 256 µg/mL; zone of inhibition at 400 µg/disc (Escherichia coli [20]): 10 mm; MIC (Pseudomonas aeruginosa [21]): ≥ 256 µg/mL; zone of inhibition at 400 µg/disc (Pseudomonas aeruginosa [22]): 10 mm; MIC (Candida parapsilosis): ≥ 256 µg/mL; MIC (Escherichia coli [24]): ≥ 256 µg/mL; MIC (Pseudomonas aeruginosa [26]): ≥ 256 µg/mL; zone of inhibition at 400 µg/disc (Pseudomonas aeruginosa [28]): 10 mm
O=C(O)c1cn(C2CC2)c2cc(N3CCNCC3)c(F)cc2c1=O [CIPROFLOXACIN]	–	–	0.25 (≈ 0.754 µM)	–	–	–	–	28	–	–	–	–	–	–	26	30	26	32	22	0.25 (≈ 0.754 µM)	Activity (Pseudomonas aeruginosa [5]): inactive; Activity (Proteus vulgaris [7]): inactive; Activity [12]: inactive; Activity (Candida albicans [14]): inactive; Activity (Escherichia coli [18]): inactive; Activity (Candida albicans [19]): inactive; Activity (Pseudomonas aeruginosa [21]): inactive; Activity (Candida parapsilosis): inactive; Activity (Escherichia coli [24]): inactive; Activity (Pseudomonas aeruginosa [26]): inactive
CC[C@@H](C(=O)[C@@H](C)[C@@H](O)[C@H](C)[C@@H]1O[C@@H]([C@@H](CC)C(=O)NCc2ccccc2)CC[C@@H]1C)[C@H]1O[C@]2(C=C[C@@H](O)[C@]3(CC[C@@](C)([C@H]4CC[C@](O)(CC)[C@H](C)O4)O3)O2)[C@H](C)C[C@@H]1C	≥ 256	10	≥ 256	10	≥ 256	10	≥ 256	10	≥ 256	≥ 256	10	≥ 256	10	≥ 256	10	10	10	10	10	≥ 256	MIC (Staphylococcus aureus [15]): ≥ 256 µg/mL; MIC [17]: ≥ 256 µg/mL; MIC (Escherichia coli [18]): ≥ 256 µg/mL; MIC (Candida albicans [19]): ≥ 256 µg/mL; zone of inhibition at 400 µg/disc (Escherichia coli [20]): 10 mm; MIC (Pseudomonas aeruginosa [21]): ≥ 256 µg/mL; zone of inhibition at 400 µg/disc (Pseudomonas aeruginosa [22]): 10 mm; MIC (Candida parapsilosis): ≥ 256 µg/mL; MIC (Escherichia coli [24]): ≥ 256 µg/mL; MIC (Pseudomonas aeruginosa [26]): ≥ 256 µg/mL; zone of inhibition at 400 µg/disc (Pseudomonas aeruginosa [28]): 10 mm
CC[C@@H](C(=O)[C@@H](C)[C@@H](O)[C@H](C)[C@@H]1O[C@@H]([C@@H](CC)C(=O)NCCOCCOCCOC)CC[C@@H]1C)[C@H]1O[C@]2(C=C[C@@H](O)[C@]3(CC[C@@](C)([C@H]4CC[C@](O)(CC)[C@H](C)O4)O3)O2)[C@H](C)C[C@@H]1C	≥ 256	10	≥ 256	10	≥ 256	10	≥ 256	10	≥ 256	≥ 256	10	≥ 256	10	≥ 256	10	10	10	10	10	≥ 256	MIC (Staphylococcus aureus [15]): ≥ 256 µg/mL; MIC [17]: ≥ 256 µg/mL; MIC (Escherichia coli [18]): ≥ 256 µg/mL; MIC (Candida albicans [19]): ≥ 256 µg/mL; zone of inhibition at 400 µg/disc (Escherichia coli [20]): 10 mm; MIC (Pseudomonas aeruginosa [21]): ≥ 256 µg/mL; zone of inhibition at 400 µg/disc (Pseudomonas aeruginosa [22]): 10 mm; MIC (Candida parapsilosis): ≥ 256 µg/mL; MIC (Escherichia coli [24]): ≥ 256 µg/mL; MIC (Pseudomonas aeruginosa [26]): ≥ 256 µg/mL; zone of inhibition at 400 µg/disc (Pseudomonas aeruginosa [28]): 10 mm
CCCCNC(=O)[C@H](CC)[C@H]1CC[C@H](C)[C@H]([C@@H](C)[C@H](O)[C@H](C)C(=O)[C@H](CC)[C@H]2O[C@]3(C=C[C@@H](O)[C@]4(CC[C@@](C)([C@H]5CC[C@](O)(CC)[C@H](C)O5)O4)O3)[C@H](C)C[C@@H]2C)O1	≥ 256	10	≥ 256	10	≥ 256	10	≥ 256	10	≥ 256	≥ 256	10	≥ 256	10	≥ 256	10	10	10	10	10	≥ 256	MIC (Staphylococcus aureus [15]): ≥ 256 µg/mL; MIC [17]: ≥ 256 µg/mL; MIC (Escherichia coli [18]): ≥ 256 µg/mL; MIC (Candida albicans [19]): ≥ 256 µg/mL; zone of inhibition at 400 µg/disc (Escherichia coli [20]): 10 mm; MIC (Pseudomonas aeruginosa [21]): ≥ 256 µg/mL; zone of inhibition at 400 µg/disc (Pseudomonas aeruginosa [22]): 10 mm; MIC (Candida parapsilosis): ≥ 256 µg/mL; MIC (Escherichia coli [24]): ≥ 256 µg/mL; MIC (Pseudomonas aeruginosa [26]): ≥ 256 µg/mL; zone of inhibition at 400 µg/disc (Pseudomonas aeruginosa [28]): 10 mm
C=CCNC(=O)[C@H](CC)[C@H]1CC[C@H](C)[C@H]([C@@H](C)[C@H](O)[C@H](C)C(=O)[C@H](CC)[C@H]2O[C@]3(C=C[C@@H](O)[C@]4(CC[C@@](C)([C@H]5CC[C@](O)(CC)[C@H](C)O5)O4)O3)[C@H](C)C[C@@H]2C)O1 [SALINOMYCIN ALLYL AMIDE]	≥ 256	10	≥ 256	10	≥ 256	10	≥ 256	10	≥ 256	≥ 256	10	≥ 256	10	≥ 256	10	10	10	10	10	≥ 256	MIC (Staphylococcus aureus [15]): ≥ 256 µg/mL; MIC [17]: ≥ 256 µg/mL; MIC (Escherichia coli [18]): ≥ 256 µg/mL; MIC (Candida albicans [19]): ≥ 256 µg/mL; zone of inhibition at 400 µg/disc (Escherichia coli [20]): 10 mm; MIC (Pseudomonas aeruginosa [21]): ≥ 256 µg/mL; zone of inhibition at 400 µg/disc (Pseudomonas aeruginosa [22]): 10 mm; MIC (Candida parapsilosis): ≥ 256 µg/mL; MIC (Escherichia coli [24]): ≥ 256 µg/mL; MIC (Pseudomonas aeruginosa [26]): ≥ 256 µg/mL; zone of inhibition at 400 µg/disc (Pseudomonas aeruginosa [28]): 10 mm
